Data published in patent publication US8877681B2, “Use of specific alcohol alkoxylates as an adjuvant for agrotechnical applications” (BASF SE, priority 2002, dated 2014).

Columns and labels:
[1] = system: white goosefoot (Chenepodium album; CHEAL); experiment: Greenhouse herbicidal efficacy test, tank mix of herbicide and adjuvant, post-emergence spray; assay type: in vivo; conditions: 0% no damage, 100% complete damage
Protocol: (§1) The alkoxylates were applied by the tank mix method together with Basagran (480 g/l bentazone) or BAS 635 H (71.4% by weight of tritosulfuron). […] The herbicidal effect was assessed in a greenhouse experiment. The test plant used was white goosefoot (Chenepodium album; CHEAL) and the common morningglory (Pharbitis album; PHAAL).
(§2) The plants were sown directly or pricked out at a rate of 3-15 plants per pot. When the active ingredient was applied, the plants were 5-16 cm in height. The test containers used were plastic pots containing loamy sand and approximately 3% humus as substrate. The surfactants were applied by the tank mix method by spray application post-emergence in an automated spray cabinet with a water application rate of 400 liters per hectare. The experimental period was 6 days to 4 weeks. Evaluation was carried out using a scale of from 0% to 100%. 0% means no damage, 100% means complete damage.

[2] = system: common morningglory (Pharbitis album; PHAAL); experiment: as above; assay type: in vivo; conditions: Tritosulfuron (BAS 635 H) 0.250 kg/ha as printed in table + adjuvant 0.125 kg/ha (Comparison 0.250 kg/ha), 0% no damage, 100% complete damage
Protocol: as §1, §2

Compound | CHEAL herbicidal effect (damage, scale 0% to 100%) ([1]; Bentazone (Basagran) 0.250 kg/ha + adjuvant 0.125 kg/ha (Comparison 0.250 kg/ha), 400 l/ha water) [%] | CHEAL herbicidal effect (damage, scale 0% to 100%) ([1]; Tritosulfuron (BAS 635 H) 0.250 kg/ha as printed in table + adjuvant 0.125 kg/ha (Comparison 0.250 kg/ha)) [%] | PHAAL herbicidal effect (damage, scale 0% to 100%) [2] [%]
CC(C)N1C(=O)c2ccccc2NS1(=O)=O [Bentazone, bentazone] | 23 |  | 
COc1nc(NC(=O)NS(=O)(=O)c2ccccc2C(F)(F)F)nc(C(F)(F)F)n1 [Tritosulfuron, tritosulfuron] |  | 35 | 48
